Assays:
Format in all cases: in vivo
Kochia (Kochia scoparia) [1] = assay: Test A preemergence
In short: (§1)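 In a loam soil and sand blend, planted seeds got a preemergence directed soil spray, and young plants at the one- to two-leaf stage, 2–10 cm high, got a postemergence application; ~10 d greenhouse hold; injury rated visually, 0 = none, 100 = complete control.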

[2] = tested on: barnyardgrass (Echinochloa crus-galli); assay: Test A preemergence
In short: as §1

[3] = tested on: giant foxtail (Setaria faberii); assay: Test A preemergence
In short: as §1

[4] = tested on: pigweed (Amaranthus retroflexus); assay: Test A preemergence
[5] = tested on: ragweed (common ragweed, Ambrosia elatior); assay: Test A preemergence
In short: as §1

[6] = tested on: ryegrass, Italian (Italian ryegrass, Lolium multiflorum); assay: Test A preemergence
In short: as §1

[7] = tested on: Galium (catchweed bedstraw, Galium aparine); assay: Test A postemergence; conditions: postemergence, 0 to 100 scale (0 no effect, 100 complete control)
In short: as §1

Kochia (Kochia scoparia) [8] = assay: Test A postemergence; conditions: postemergence, 0 to 100 scale (0 no effect, 100 complete control)
In short: as §1

[9] = tested on: barnyardgrass (Echinochloa crus-galli); assay: Test A postemergence
In short: as §1

[10] = tested on: blackgrass (Alopecurus myosuroides); assay: Test A postemergence
In short: as §1

corn (Zea mays) = assay: Test A postemergence
In short: as §1

[11] = tested on: giant foxtail (Setaria faberii); assay: Test A postemergence; conditions: postemergence, 0 to 100 scale (0 no effect, 100 complete control)
In short: as §1

[12] = tested on: pigweed (Amaranthus retroflexus); assay: Test A postemergence; conditions: postemergence, 0 to 100 scale (0 no effect, 100 complete control)
In short: as §1

[13] = tested on: ragweed (common ragweed, Ambrosia elatior); assay: Test A postemergence; conditions: postemergence, 0 to 100 scale (0 no effect, 100 complete control)
In short: as §1

[14] = tested on: ryegrass, Italian (Italian ryegrass, Lolium multiflorum); assay: Test A postemergence; conditions: postemergence, 0 to 100 scale (0 no effect, 100 complete control)
In short: as §1

[15] = tested on: wheat (Triticum aestivum); assay: Test A postemergence; conditions: postemergence, 0 to 100 scale (0 no effect, 100 complete control)
In short: as §1

[16] = tested on: barnyardgrass (Echinochloa crus-galli); assay: Test B flooded paddy test; conditions: Flood, 250 g ai/ha; 0 to 100 scale where 0 is no effect and 100 is complete control; 13 to 15 d
In short: (§2)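 2-leaf plants; pots flooded 3 cm over soil; cpd added to paddy water; depth held; greenhouse 13–15 d; visual rating vs controls, 0 = no effect, 100 = complete control.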

[17] = tested on: ducksalad (Heteranthera limosa); assay: Test B flooded paddy test; conditions: Flood, 250 g ai/ha; 0 to 100 scale where 0 is no effect and 100 is complete control; 13 to 15 d
In short: as §2

rice (Oryra sativa) = assay: Test B flooded paddy test; conditions: Flood, 250 g ai/ha; 0 to 100 scale where 0 is no effect and 100 is complete control; 13 to 15 d
In short: as §2

[18] = tested on: sedge, umbrella (small-flower umbrella sedge, Cyperus difformis); assay: Test B flooded paddy test; conditions: Flood, 250 g ai/ha; 0 to 100 scale where 0 is no effect and 100 is complete control; 13 to 15 d
In short: as §2

[19] = tested on: barnyardgrass (Echinochloa crus-galli); assay: Test C flooded paddy test; conditions: Flood; for Plant response rating (scale of 0 to 100), Barnyardgrass: 0 is no effect, 100 is complete control
In short: (§3)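 Test compounds were dosed straight into the flood water of pots holding 2-leaf-stage plants, with water kept 3 cm above the soil. Greenhouse plants were scored visually against controls after 13 to 15 d, from 0 (no effect) to 100 (complete control).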

[20] = tested on: ducksalad (Heteranthera limosa); assay: Test C flooded paddy test; conditions: Flood; for Plant response rating (scale of 0 to 100), Ducksalad: 0 is no effect, 100 is complete control
In short: as §3

rice (Oryza sativa) = assay: Test C flooded paddy test; conditions: Flood; for Plant response rating (scale of 0 to 100), Rice: 0 is no effect, 100 is complete control
In short: as §3

[21] = tested on: sedge, umbrella (small-flower umbrella sedge, Cyperus difformis); assay: Test C flooded paddy test; conditions: Flood; for Plant response rating (scale of 0 to 100), Sedge, Umbrella: 0 is no effect, 100 is complete control
In short: as §3

[22] = 125 g ai/ha, Preemergence, visual injury after approximately 10 d, 0 to 100 scale where 0 is no effect and 100 is complete control
[23] = 500 g ai/ha, preemergence, 0 to 100 scale, 0 = no effect, 100 = complete control
[24] = 125 g ai/ha, visual rating after approx. 10 d
[25] = 500 g ai/ha, visual injury, approx. 10 d
[26] = 125 g ai/ha, postemergence, visual rating after approx. 10 d, 0 to 100 scale (0 no effect, 100 complete control)
[27] = Postemergence, 500 g ai/ha, 0 to 100 scale where 0 is no effect and 100 is complete control
[28] = 500 g ai/ha, postemergence, visual injury, 0 to 100 scale (0 no effect, 100 complete control), approx. 10 d
[29] = 31 g ai/ha, scale 0 to 100 (0 no effect, 100 complete control), 13 to 15 d

SMILES: CN1CC(c2cccc(F)c2)C(C(=O)Nc2ccc(F)cc2F)C1=O (centres unmarked) [Compound 633]
- Plant response rating, Kochia (Kochia (Kochia scoparia) [1]; [22]): 30
- Plant response rating, Kochia (Kochia (Kochia scoparia) [1]; [23]): 50
- Plant response rating, Barnyardgrass [2, 22]: 90
- Plant response rating, Barnyardgrass [2, 23]: 90
- Plant response rating, Foxtail, Giant [3, 22]: 90
- Plant response rating, Foxtail, Giant [3, 23]: 90
- Plant response rating, Pigweed [4, 22]: 0
- Plant response rating, Pigweed [4, 23]: 50
- Plant response rating, Ragweed [5, 22]: 0
- Plant response rating, Ragweed [5, 23]: 50
- Plant response rating, Ryegrass, Italian [6, 22]: 30
- Plant response rating, Ryegrass, Italian [6, 23]: 60
- Plant response rating, Galium [7, 24]: 0
- Plant response rating, Galium [7, 25]: 50
- Plant response rating, Kochia (Kochia (Kochia scoparia) [8]; [24]): 40
- Plant response rating, Kochia (Kochia (Kochia scoparia) [8]; [25]): 60
- Plant response rating, Barnyardgrass [9, 26]: 90
- Plant response rating, Barnyardgrass [9, 27]: 90
- Plant response rating, Blackgrass [10, 26]: 20
- Plant response rating, Blackgrass [10, 27]: 50
- Plant response rating, Corn (corn (Zea mays); [26]): 0
- Plant response rating, Corn (corn (Zea mays); [27]): 60
- Plant response rating, Foxtail, Giant [11, 24]: 90
- Plant response rating, Foxtail, Giant [11, 25]: 90
- Plant response rating, Pigweed [12, 24]: 0
- Plant response rating, Pigweed [12, 25]: 0
- Plant response rating, Ragweed [13, 24]: 0
- Plant response rating, Ragweed [13, 25]: 0
- Plant response rating, Ryegrass, Italian [14, 24]: 0
- Plant response rating, Ryegrass, Italian [14, 25]: 50
- Plant response rating, Wheat [15, 24]: 0
- Plant response rating, Wheat [15, 25]: 40
- Plant response rating, Barnyardgrass [16]: 90
- Plant response rating, Ducksalad [17]: 100
- Plant response rating, Rice (rice (Oryra sativa)): 20
- Plant response rating, Sedge, Umbrella [18]: 0
- Plant response rating (scale of 0 to 100), Barnyardgrass ([19]; 31 g ai/ha): 10
- Plant response rating (scale of 0 to 100), Barnyardgrass ([19]; 62 g ai/ha): 40
- Plant response rating (scale of 0 to 100), Barnyardgrass ([19]; 125 g ai/ha): 55
- Plant response rating (scale of 0 to 100), Barnyardgrass ([19]; 250 g ai/ha): 70
- Plant response rating (scale of 0 to 100), Ducksalad ([20]; 31 g ai/ha): 0
- Plant response rating (scale of 0 to 100), Ducksalad ([20]; 62 g ai/ha): 60
- Plant response rating (scale of 0 to 100), Ducksalad ([20]; 125 g ai/ha): 75
- Plant response rating (scale of 0 to 100), Ducksalad ([20]; 250 g ai/ha): 100
- Plant response rating (scale of 0 to 100), Rice (rice (Oryza sativa); 31 g ai/ha): 0
- Plant response rating (scale of 0 to 100), Rice (rice (Oryza sativa); 62 g ai/ha): 0
- Plant response rating (scale of 0 to 100), Rice (rice (Oryza sativa); 125 g ai/ha): 0
- Plant response rating (scale of 0 to 100), Rice (rice (Oryza sativa); 250 g ai/ha): 10
- Plant response rating (scale of 0 to 100), Sedge, Umbrella ([21]; 31 g ai/ha): 0
- Plant response rating (scale of 0 to 100), Sedge, Umbrella ([21]; 62 g ai/ha): 0
- Plant response rating (scale of 0 to 100), Sedge, Umbrella ([21]; 125 g ai/ha): 0
- Plant response rating (scale of 0 to 100), Sedge, Umbrella ([21]; 250 g ai/ha): 0

SMILES: CN1CC(c2cc(F)cc(F)c2)C(C(=O)Nc2ccccc2F)C1=O (centres unmarked) [Compound 643]
- Plant response rating, Kochia (Kochia (Kochia scoparia) [1]; [22]): 0
- Plant response rating, Kochia (Kochia (Kochia scoparia) [1]; [23]): 40
- Plant response rating, Barnyardgrass [2, 22]: 90
- Plant response rating, Barnyardgrass [2, 23]: 90
- Plant response rating, Foxtail, Giant [3, 22]: 100
- Plant response rating, Foxtail, Giant [3, 23]: 100
- Plant response rating, Pigweed [4, 22]: 0
- Plant response rating, Pigweed [4, 23]: 20
- Plant response rating, Ragweed [5, 22]: 0
- Plant response rating, Ragweed [5, 23]: 20
- Plant response rating, Ryegrass, Italian [6, 22]: 20
- Plant response rating, Ryegrass, Italian [6, 23]: 90
- Plant response rating, Galium [7, 24]: 0
- Plant response rating, Galium [7, 25]: 50
- Plant response rating, Kochia (Kochia (Kochia scoparia) [8]; [24]): 0
- Plant response rating, Kochia (Kochia (Kochia scoparia) [8]; [25]): 20
- Plant response rating, Barnyardgrass [9, 26]: 90
- Plant response rating, Barnyardgrass [9, 28]: 90
- Plant response rating, Blackgrass [10, 26]: 50
- Plant response rating, Blackgrass [10, 28]: 60
- Plant response rating, Corn (corn (Zea mays); [26]): 0
- Plant response rating, Corn (corn (Zea mays); [28]): 70
- Plant response rating, Foxtail, Giant [11, 24]: 90
- Plant response rating, Foxtail, Giant [11, 25]: 90
- Plant response rating, Pigweed [12, 24]: 0
- Plant response rating, Pigweed [12, 25]: 0
- Plant response rating, Ragweed [13, 24]: 0
- Plant response rating, Ragweed [13, 25]: 30
- Plant response rating, Ryegrass, Italian [14, 24]: 30
- Plant response rating, Ryegrass, Italian [14, 25]: 30
- Plant response rating, Wheat [15, 24]: 0
- Plant response rating, Wheat [15, 25]: 50
- Plant response rating, Barnyardgrass [16]: 80
- Plant response rating, Ducksalad [17]: 100
- Plant response rating, Rice (rice (Oryra sativa)): 15
- Plant response rating, Sedge, Umbrella [18]: 0
- Plant response rating, Barnyardgrass [19, 29]: 0
- Plant response rating (scale of 0 to 100), Barnyardgrass ([19]; 62 g ai/ha): 35
- Plant response rating (scale of 0 to 100), Barnyardgrass ([19]; 125 g ai/ha): 65
- Plant response rating (scale of 0 to 100), Barnyardgrass ([19]; 250 g ai/ha): 90
- Plant response rating, Ducksalad [20, 29]: 20
- Plant response rating (scale of 0 to 100), Ducksalad ([20]; 62 g ai/ha): 50
- Plant response rating (scale of 0 to 100), Ducksalad ([20]; 125 g ai/ha): 75
- Plant response rating (scale of 0 to 100), Ducksalad ([20]; 250 g ai/ha): 100
- Plant response rating, Rice (rice (Oryza sativa); [29]): 0
- Plant response rating (scale of 0 to 100), Rice (rice (Oryza sativa); 62 g ai/ha): 0
- Plant response rating (scale of 0 to 100), Rice (rice (Oryza sativa); 125 g ai/ha): 0
- Plant response rating (scale of 0 to 100), Rice (rice (Oryza sativa); 250 g ai/ha): 10
- Plant response rating, Sedge, Umbrella [21, 29]: 0
- Plant response rating (scale of 0 to 100), Sedge, Umbrella ([21]; 62 g ai/ha): 0
- Plant response rating (scale of 0 to 100), Sedge, Umbrella ([21]; 125 g ai/ha): 0
- Plant response rating (scale of 0 to 100), Sedge, Umbrella ([21]; 250 g ai/ha): 0

— patent US12077503B2, “Substituted cyclic amides and their use as herbicides” (FMC CORPORATION, priority 2015, dated 2024)
